This is an account of results in patent publication US20240101572A1, “DIHYDROOXADIAZINONE COMPOUND AND PHARMACEUTICAL USE THEREOF” (Japan Tobacco Inc., priority 2022, published 2024).

One may read the IC50 as the concentration at which inhibition is half-maximal. One may read the inhibition as how much of the control response was suppressed.

Assay [1] deals with full-length human PLD1 (Homo sapiens (Human), UniProt Q13393). Briefly: Evaluation of human PLD1 enzyme inhibitory activity (Amplex Red / choline oxidase fluorescence). Format: biochemical. The conditions noted are these: for IC50: full-length human PLD1 enzyme, read-out: PLD1 IC50. The method in brief:
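N-terminally FLAG-tagged full-length human PLD1 (1-1036), expressed in Expi293F and FLAG-purified, incubated with compound (5% DMSO final) and 1,2-diheptanoyl-sn-glycero-3-phosphocholine for 60 min at room temperature in HEPES pH 7.5 buffer. Released choline detected by Amplex Red/choline oxidase/HRP fluorescence.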

Assay [2] deals with full-length human PLD2 (Homo sapiens (Human), UniProt O14939). Briefly: Evaluation of human PLD2 enzyme inhibitory activity (Amplex Red / choline oxidase fluorescence). It counts as biochemical. To be noted: for IC50: full-length human PLD2 enzyme, read-out: PLD2 IC50. A digest of the protocol: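 Enzyme was N-terminal FLAG-tagged full-length human PLD2 (1-933), expressed in Expi293F cells and anti-FLAG purified. Compound (5% DMSO final) was incubated with enzyme (6 nmol/L solution) and 1,2-diheptanoyl-PC (6 mmol/L solution) in HEPES pH 7.5, KCl, EGTA, MgCl2, NP-40, BSA buffer for 60 min at room temperature. Choline was detected with Amplex Red/choline oxidase/HRP.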

The mark [3] stands for this setting: 10 μM compound, read-out: PLD1 inhibition rate at 10 μM.
The mark [4] stands for this setting: read-out: inhibition rate of PLD1 at 10 μM compound.
Where [5] appears, read: 10 μM compound, read-out: PLD2 inhibition rate at 10 μM.
[6] abbreviates: read-out: inhibition rate of PLD2 at 10 μM compound.

Read-outs that look alike come from different tables or passages of the source. Some results are limits rather than exact numbers.

Chain of full-length human PLD1 (Q13393 other isoform, or with tags, fused parts or gaps): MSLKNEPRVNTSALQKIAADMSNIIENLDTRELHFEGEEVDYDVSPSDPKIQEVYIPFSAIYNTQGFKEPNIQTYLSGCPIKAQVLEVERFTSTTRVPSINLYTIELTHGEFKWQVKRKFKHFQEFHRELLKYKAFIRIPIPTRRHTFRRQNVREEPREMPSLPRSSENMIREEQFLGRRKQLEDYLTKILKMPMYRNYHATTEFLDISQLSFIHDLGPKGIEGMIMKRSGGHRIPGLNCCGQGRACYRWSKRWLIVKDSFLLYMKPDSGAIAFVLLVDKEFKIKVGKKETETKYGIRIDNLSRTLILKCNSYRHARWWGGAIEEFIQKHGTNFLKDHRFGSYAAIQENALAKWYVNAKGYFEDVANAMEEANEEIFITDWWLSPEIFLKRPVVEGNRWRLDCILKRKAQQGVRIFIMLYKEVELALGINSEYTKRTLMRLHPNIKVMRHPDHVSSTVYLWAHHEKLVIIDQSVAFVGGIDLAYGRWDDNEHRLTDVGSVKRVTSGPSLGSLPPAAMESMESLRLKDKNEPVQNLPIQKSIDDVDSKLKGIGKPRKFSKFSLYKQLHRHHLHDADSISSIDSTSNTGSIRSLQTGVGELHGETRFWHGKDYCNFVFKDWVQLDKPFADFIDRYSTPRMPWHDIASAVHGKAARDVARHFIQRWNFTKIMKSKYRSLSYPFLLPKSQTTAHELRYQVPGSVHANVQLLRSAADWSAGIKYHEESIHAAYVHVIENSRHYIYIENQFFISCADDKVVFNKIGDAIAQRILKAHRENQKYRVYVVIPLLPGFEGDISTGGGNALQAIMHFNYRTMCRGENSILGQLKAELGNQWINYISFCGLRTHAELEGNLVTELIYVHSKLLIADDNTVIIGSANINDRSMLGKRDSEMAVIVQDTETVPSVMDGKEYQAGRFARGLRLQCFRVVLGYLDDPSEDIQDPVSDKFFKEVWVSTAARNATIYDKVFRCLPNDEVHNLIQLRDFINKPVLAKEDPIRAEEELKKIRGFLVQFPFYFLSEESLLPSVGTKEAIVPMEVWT
Chain of full-length human PLD2 (O14939 whole entry): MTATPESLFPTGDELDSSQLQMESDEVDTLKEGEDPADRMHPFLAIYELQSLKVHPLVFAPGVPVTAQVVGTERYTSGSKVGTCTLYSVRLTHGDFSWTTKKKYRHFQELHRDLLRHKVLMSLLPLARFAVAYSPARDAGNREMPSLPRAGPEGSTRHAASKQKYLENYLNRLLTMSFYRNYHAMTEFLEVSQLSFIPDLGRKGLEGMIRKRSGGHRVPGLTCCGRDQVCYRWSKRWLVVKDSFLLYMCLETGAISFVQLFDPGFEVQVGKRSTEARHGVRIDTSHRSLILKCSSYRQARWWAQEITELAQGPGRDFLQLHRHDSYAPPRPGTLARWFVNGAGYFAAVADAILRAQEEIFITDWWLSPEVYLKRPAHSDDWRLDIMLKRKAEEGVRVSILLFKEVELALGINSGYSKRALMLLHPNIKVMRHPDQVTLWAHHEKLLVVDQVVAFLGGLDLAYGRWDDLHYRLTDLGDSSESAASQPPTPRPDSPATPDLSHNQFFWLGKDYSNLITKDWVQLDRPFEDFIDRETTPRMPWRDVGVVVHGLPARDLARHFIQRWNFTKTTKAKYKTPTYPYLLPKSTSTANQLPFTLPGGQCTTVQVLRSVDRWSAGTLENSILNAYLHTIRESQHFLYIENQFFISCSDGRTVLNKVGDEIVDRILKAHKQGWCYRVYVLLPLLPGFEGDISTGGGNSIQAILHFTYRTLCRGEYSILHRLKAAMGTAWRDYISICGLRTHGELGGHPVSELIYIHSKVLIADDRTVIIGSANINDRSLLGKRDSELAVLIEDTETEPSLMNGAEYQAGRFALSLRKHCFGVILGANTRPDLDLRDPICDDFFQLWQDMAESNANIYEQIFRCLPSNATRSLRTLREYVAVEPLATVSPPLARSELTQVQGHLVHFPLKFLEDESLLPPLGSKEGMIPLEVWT

Turning to `COc1cc(C)c(C2=NNC(=O)O[C@]23CC[C@@H](C[C@H](C)NC(=O)N2CCn4nncc4C2)CC3)cn1` [Example 235], the IC50 in assay [1] was determined as 35 nM; in assay [2], 13 nM.

Take `COc1cc(C)c(C2=NNC(=O)O[C@]23CC[C@@H](C[C@H](C)NC(=O)N2CCc4nocc4C2)CC3)cn1` [Example 260]: the concentration for half-maximal inhibition (IC50) in assay [1] was 31 nM; in assay [2], less than 10 nM.

Turning to `Cc1cc(Cl)c(C2=NNC(=O)O[C@]23CC[C@@H](C[C@H](C)NC(=O)c2cc(C)n[nH]2)CC3)cn1` [Example 231], the results for the half-inhibitory concentration (IC50) in assay [1] and in assay [2] were 24 nM and 12 nM, respectively.

Consider `Cc1cc(Br)ccc1C1=NNC(=O)O[C@]12CC[C@@H](C[C@H](C)NC(=O)NC1CC1)CC2` [Example 210], for which the IC50 in assay [1] was 296 nM; in assay [2], 1090 nM.

`CCCC(=O)N[C@@H](C)C[C@H]1CC[C@]2(CC1)OC(=O)NN=C2c1ccc(F)cc1Br` [Example 42]: the IC50 turned out to be 247 nM in assay [1] and 261 nM in assay [2].

For the molecule `CNC(=O)C(=O)N[C@@H](C)C[C@H]1CC[C@]2(CC1)OC(=O)NN=C2c1ccc(OC)cc1Br` [Example 58], the results for the half-maximal inhibitory concentration (IC50) in assay [1] and in assay [2] were 14 nM and less than 10 nM, respectively.

Take `CNC(=O)C(=O)N[C@@H](C)C[C@H]1CC[C@]2(CC1)OC(=O)NN=C2c1cnc(N2CCCC2)cc1C` [Example 165]: the half-maximal inhibitory concentration (IC50) in assay [1] is 19 nM; in assay [2], less than 10 nM.

On to `CNC(=O)/C=C\C(=O)N[C@@H](C)CN1CCC2(CC1)OC(=O)NN=C2c1cc(C#N)ccc1Br` [Example 2-063], for which the IC50 in assay [1] turned out to be 173 nM; in assay [2], 106 nM.

For `CNC(=O)C(=O)N[C@@H](C)C[C@H]1CC[C@]2(CC1)OC(=O)NN=C2c1cnc(OC)cc1C` [Example 154], the IC50 in assay [1] is 27 nM; in assay [2], 14 nM.

For `CNC(=O)C(=O)N[C@@H](C)C[C@H]1CC[C@]2(CC1)OC(=O)NN=C2c1ccc(Br)cc1C` [Example 161], the IC50 was determined as 20 nM in assay [1] and 13 nM in assay [2].

In the case of `Cc1cc(C(=O)N[C@@H](C)CN2CCC3(CC2)OC(=O)NN=C3c2ccc(F)cc2Cl)no1` [Example 98], the half-inhibitory concentration (IC50) in assay [1] is 57 nM; in assay [2], 78 nM.

Regarding `Cc1cc(C(=O)N[C@@H](C)C[C@H]2CC[C@]3(CC2)OC(=O)NN=C3c2cc(OC(F)F)ccc2Br)[nH]n1` [Example 214], the 50% inhibitory concentration (IC50) in assay [1] and in assay [2] was less than 10 nM throughout.

For the molecule `CBC(=O)C(=O)N[C@@H](C)C[C@H]1CC[C@]2(CC1)OC(=O)NN=C2c1ccc(S(C)(=O)=O)cc1Cl` [Example 51], the results for the IC50 in assay [1] and in assay [2] were 33 nM and 16 nM, respectively.

As for `CNC(=O)C(=O)N[C@@H](C)C[C@H]1CC[C@]2(CC1)OC(=O)NN=C2c1cnc(N2CC(C(F)F)C2)cc1C` [Example 227], the IC50 is 19 nM in assay [1] and less than 10 nM in assay [2].

As for `C[C@@H](CN1CCC2(CC1)OC(=O)NN=C2c1cc(C#N)ccc1Br)NC(=O)/C=C/C(F)(F)F` [Example 2-003], the IC50 in assay [1] was determined as 38 nM; in assay [2], 12 nM.

In the case of `CNC(=O)C(=O)N[C@@H](C)CN1C[C@H]2CC[C@@H](C1)[C@@]21OC(=O)NN=C1c1ccc(F)cc1Cl` [Example 196], the figures for the 50% inhibitory concentration (IC50) in assay [1] and in assay [2] were 27 nM and less than 10 nM, respectively.

Consider `CNC(=O)C(=O)N[C@@H](C)C[C@H]1CC[C@]2(CC1)OC(=O)NN=C2c1cnc(O)cc1C` [Example 162], for which the 50% inhibitory concentration (IC50) stood at 322 nM in assay [1] and 536 nM in assay [2].

Take `CNC(=O)C(=O)N[C@@H](C)C[C@H]1CC[C@]2(CC1)OC(=O)NN=C2c1cnc(Cl)cc1C` [Example 158]: the results for the IC50 in assay [1] and in assay [2] were 27 nM and 15 nM, respectively.

Regarding `CNC(=O)C(=O)N[C@@H](C)C[C@H]1CC[C@]2(CC1)OC(=O)NN=C2c1cnc(C(C)=O)cc1C` [Example 193], the half-inhibitory concentration (IC50) in assay [1] came to 55 nM; in assay [2] it was 46 nM.

As to `C[C@@H](C[C@H]1CC[C@]2(CC1)OC(=O)NN=C2c1ccc(F)cc1Br)NC(=O)c1cc(Cl)no1` [Example 37], the IC50 in assay [1] and in assay [2] was less than 10 nM in each case.

For `Cc1cc(C(=O)N[C@@H](C)C[C@H]2CC[C@]3(CC2)OC(=O)NN=C3c2cnc(N3CCOCC3)cc2Cl)[nH]n1` [Example 226], the IC50 in assay [1] was 18 nM; in assay [2] it was less than 10 nM.

For the molecule `Cc1cc(C(=O)N[C@@H](C)C[C@H]2CC[C@]3(CC2)OC(=O)NN=C3c2cc(OC(F)(F)F)ccc2Br)[nH]n1` [Example 304], the half-maximal inhibitory concentration (IC50) in assay [1] and in assay [2] was less than 10 nM throughout.

Consider `C[C@@H](C[C@H]1CC[C@]2(CC1)OC(=O)NN=C2c1cc(C#N)ccc1Br)NC(=O)c1cn(C)cn1` [Example 2-071], for which the 50% inhibitory concentration (IC50) in assay [1] was 13 nM; in assay [2] it was less than 10 nM.

For the molecule `C[C@@H](CN1CCC2(CC1)OC(=O)NN=C2c1ccc(C#N)cc1Br)NC(=O)c1cnn(C)c1` [Example 336], the IC50 in assay [1] was 33 nM; in assay [2] it was less than 10 nM.

For the molecule `Cc1cc(C(=O)N[C@@H](C)C[C@H]2CC[C@]3(CC2)OC(=O)NN=C3c2cccc(Br)c2)[nH]n1` [Example 25], the IC50 came to 108 nM in assay [1] and 101 nM in assay [2].

On to `C[C@@H](C[C@H]1CC[C@]2(CC1)OC(=O)NN=C2c1ccc(F)cc1Br)NC(=O)c1cnn(C)c1` [Example 219], for which the IC50 in assay [1] and in assay [2] was less than 10 nM each time.

With `Cc1cc(C(=O)N[C@@H](C)CN2CCC3(CC2)OC(=O)NN=C3c2ccc(C#N)cc2Cl)[nH]n1` [Example 169], the IC50 in assay [1] worked out at 34 nM; in assay [2], 20 nM.

With `CNC(=O)C(=O)N[C@@H](C)[C@H](C)N1CCC2(CC1)OC(=O)NN=C2c1ccc(F)cc1Br` [Example 289], the results for the IC50 in assay [1] and in assay [2] were 18 nM and less than 10 nM, respectively.

Regarding `CNC(=O)C(=O)N[C@@H](C)C[C@H]1CC[C@]2(CC1)OC(=O)NN=C2c1cc(C(=O)N2CC(F)(F)C2)ccc1Br` [Example 2-057], the half-inhibitory concentration (IC50) is 18 nM in assay [1] and less than 10 nM in assay [2].

On to `C[C@@H](C[C@H]1CC[C@]2(CC1)OC(=O)NN=C2c1ccc(OCC(C)(C)O)cc1Br)NC(=O)c1cc(Cl)no1` [Example 131], for which the figures for the IC50 in assay [1] and in assay [2] were 10 nM and less than 10 nM, respectively.

As to `CNC(=O)C(=O)N[C@@H](C)C[C@H]1CC[C@]2(CC1)OC(=O)NN=C2c1ccnn1C` [Example 68], the half-inhibitory concentration (IC50) in assay [1] was found to be 2030 nM; in assay [2], 4660 nM.

Take `C[C@@H](C[C@H]1CC[C@]2(CC1)OC(=O)NN=C2c1cc(Cl)ccc1Cl)NC(=O)c1cc2ccccn2n1` [Example 313]: the IC50 in assay [1] stood at 23 nM; in assay [2] it was 25 nM.

Turning to `CNC(=O)C(=O)N[C@@H](C)CC1CC[C@]2(C[C@@H]1F)OC(=O)NN=C2c1ccc(F)cc1Br` (stereo partly shown) [Example 285], the 50% inhibitory concentration (IC50) in assay [1] and in assay [2] was less than 10 nM in each case.

As for `CNC(=O)C(=O)N[C@@H](C)C[C@H]1CC[C@]2(CC1)OC(=O)NN=C2c1ccc(F)cc1CCC(F)(F)F` [Example 135], the half-inhibitory concentration (IC50) in assay [1] turned out to be 86 nM; in assay [2], 33 nM.

For `CNC(=O)C(=O)N[C@@H](C)C[C@H]1CC[C@]2(CC1)OC(=O)NN=C2c1cc(C#N)ccc1C` [Example 287], the IC50 was 13 nM in assay [1] and less than 10 nM in assay [2].

Turning to `CNC(=O)C(=O)N[C@@H](C)C[C@H]1CC[C@]2(CC1)OC(=O)NN=C2c1cnc(N2C[C@@H]3C[C@H]2CO3)cc1Cl` [Example 244], the IC50 in assay [1] is 19 nM; in assay [2], less than 10 nM.

With `C[C@@H](CN1CCC2(CC1)OC(=O)NN=C2c1cc(C#N)ccc1Br)NC(=O)/C=C\C(=O)O` [Example 2-047], the inhibition at 10 µM in assay [1] (setting [3]) is 32%; in assay [1] (setting [4]) it was 32%; in assay [2] (setting [5]), 34%; in assay [2] (setting [6]), 34%.

As for `CNC(=O)C(=O)N[C@@H](C)C[C@H]1CC[C@]2(CC1)OC(=O)NN=C2c1cc(OC)ncc1Br` [Example 2-074], the figures for the concentration for half-maximal inhibition (IC50) in assay [1] and in assay [2] were 11 nM and less than 10 nM, respectively.

Consider `C[C@@H](CN1CCC2(CC1)OC(=O)NN=C2c1ccc(F)cc1Cl)NC(=O)c1cc(C(F)(F)F)on1` [Example 99], for which the 50% inhibitory concentration (IC50) was 241 nM in assay [1] and 373 nM in assay [2].

For the molecule `C[C@@H](C[C@H]1CC[C@]2(CC1)OC(=O)NN=C2c1cc(C#N)ccc1Br)NC(=O)c1cnn(C)c1` [Example 325], the concentration for half-maximal inhibition (IC50) in assay [1] is 15 nM; in assay [2], less than 10 nM.

For `CNC(=O)C(=O)N[C@@H](C)C[C@H]1CC[C@]2(CC1)OC(=O)NN=C2c1cc(OCC(C)(C)O)ccc1Br` [Example 2-014], the results for the IC50 in assay [1] and in assay [2] were 22 nM and less than 10 nM, respectively.

For `C[C@@H](C[C@H]1CC[C@]2(CC1)OC(=O)NN=C2c1ccc(F)cc1Br)NC(=O)C1CCC(=O)N1` (mixture of isomers) [Example 18], the IC50 in assay [1] came out at 852 nM; in assay [2], 157 nM.

As for `CNC(=O)C(=O)N[C@@H](C)C(C#N)N1CCC2(CC1)OC(=O)NN=C2c1ccc(F)cc1Br` (mixture of isomers) [Example 2-010], the IC50 amounted to 1010 nM in assay [1] and 1260 nM in assay [2].

Take `C[C@@H](C[C@H]1CC[C@]2(CC1)OC(=O)NN=C2c1ccc(F)cc1Br)NC(=O)OC(C)(C)C` [Example 34]: the inhibition at 10 µM was determined as 36% in assay [1] (setting [3]), 36% in assay [1] (setting [4]), 17% in assay [2] (setting [5]) and 17% in assay [2] (setting [6]).

With `CNC(=O)C(=O)N[C@@H](C)CN1CC[C@]2(C[C@@H]1C)OC(=O)NN=C2c1ccc(C#N)cc1Cl` [Example 280], the IC50 was 147 nM in assay [1] and 316 nM in assay [2].
